# Legend:
# [1] = Cyclic voltammetry (redox potentials on a GCE); assay type: physicochemical; conditions: for (E p)a Oxidation / (E p)c Reduction / E1/2 / Ipa/Ipc / ΔE p: GCE (d = 2 mm)
# From the text: Reduction and oxidation potentials were experimentally performed by cyclic voltammetry (CV) at biological pH 7.4, as previously described. All samples were run on a CH Instruments 600E Potentiostat in a one-compartment cell equipped with a three-electrode system arrangement. The three-electrode system included a saturated calomel electrode as the reference electrode, a platinum wire as the auxiliary electrode, and a glassy carbon electrode (GCE, d = 2 mm) as the working electrode. The GCE was polished between each sample scan with an aqueous slurry of alumina powder on a microcloth pad. The electrodes were rinsed with distilled water prior to the next scan. All scans were conducted under nitrogen for oxygen displacement and at room temperature (rt, 25 ± 1 °C). All samples were prepared as close to the scan as possible (approximately 2 min each). Each sample (5 mL) contained 0.1 mM catecholic substrate and 1 μM DMSO in 0.1 M phosphate buffer at a pH of 7.4 or 6.0. […] The cyclic voltammograms for the compounds at both pH 6.0 and 7.4 are available in Figures S40–S51.
# [2] = target: L-DOPA 2,3-dioxygenase from S. hygroscopicus jingganensis (ShjDDO) (Streptomyces hygroscopicus, UniProt H2JL11); assay: UV-visible steady-state assay of L-DOPA 2,3-dioxygenase (ShjDDO); assay type: biochemical; conditions: for kSP, O2 (μM^-1 min^-1) at pH 7.5 relative to L-DOPA x 100 for ShjDDO: percentage of the value for L-DOPA
# L-DOPA 2,3-dioxygenase from S. hygroscopicus jingganensis (ShjDDO), sequence (H2JL11 1-162): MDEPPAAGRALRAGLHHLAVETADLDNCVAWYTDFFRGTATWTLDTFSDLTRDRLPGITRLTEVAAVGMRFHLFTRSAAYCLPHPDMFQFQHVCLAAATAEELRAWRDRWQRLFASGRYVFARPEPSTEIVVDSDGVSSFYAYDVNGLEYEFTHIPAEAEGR
# Experimental: Purified, reconstituted L-DOPA 2,3-dioxygenases were assessed for activity by monitoring the cleavage of catecholic substrates using UV–visible spectroscopy. 3,4-Dihydroxyhydrocinnamic acid (DHHCA, 3) was purchased from Sigma-Aldrich. 6-CyanoDHHCA (5) and 6-bromoDHHCA (4) were synthesized as described above.
# Molecular oxygen (AirGas) was bubbled directly into the reaction buffer through a glass-bonded silica gas diffuser (Bubblemac Industries, Inc.) or as a gas mixture blended with air (AirGas). Solutions were bubbled with oxygen for several minutes prior to use and for the duration of the experiment. To determine the K M for oxygen (i.e., K MO2), L-DOPA 2,3-dioxygenases (0.25–4.0 μM) were reacted with a saturating concentration of the catecholic substrate DHHCA/6-X-DHHCA derivatives (2–10× the K M sufficient to achieve k cat) and various oxygen concentrations (21–100% or 270–1300 μM at 22 °C). The concentration of oxygen was varied by changing the percentage of oxygen in the blend using a galvanic oxygen sensor and oxygen monitor (AirGas) and then bubbling solutions, as described above. Molecular oxygen percentages were converted to molar concentrations using a reference temperature of 22 °C. The reaction of L-DOPA 2,3-dioxygenases with DHHCA/6-X-DHHCA derivatives as a function of oxygen concentration was followed by the appearance of the steady-state cleavage product by using UV–visible spectroscopy.
# The extinction coefficients for steady-state cleavage products of DHHCA and synthetic 6-X-DHHCA derivatives were determined by reacting various concentrations of DHHCA/6-X-DHHCA derivatives at 22 °C with a 10-fold stoichiometric excess of enzyme (quantified by Fe^II–see Reconstitution) in 50 mM HEPES buffer with 154 mM NaCl at pH 7.5, bubbled with 100% oxygen to a final concentration of 780–910 μM, depending on the volume of oxygenated buffer that comprised the reaction (60–70%). Substrate solutions were prepared from authentic synthetic standards using an analytical balance, and reactions were run to completion as assessed by the appearance of the steady-state product. The λmax and extinction coefficients of DHHCA, 6-cyanoDHHCA, and 6-bromoDHHCA were determined herein as ε380 = 40 740 ± 820 M^–1cm^–1, ε385 = 33 256 ± 484 M^–1cm^–1, and ε380 = 35 282 ± 1190 M^–1cm^–1, respectively (Figure S52).
# Steady-state kinetic data were obtained through a UV–visible spectroscopic assay. Initial rates were obtained from the slopes of the linear regions of the progress curves and plotted versus substrate concentration to yield a hyperbola, which was analyzed using the Michaelis–Menten expression and nonlinear least-squares fitting (NLSF) with Origin 6.0 (Microcal). Two possible derivations of the Michaelis–Menten expression were used: 1) the traditional expression y = k cat × x/(K M + x), where y is Rate/E 0 or the rate of product formation (μM/min) divided by the starting enzyme concentration (μM), x is substrate concentration (μM) and k SP (also known as k cat × K M ^–1)–that is, the second-order rate constant of enzyme and substrate–is extracted from the fitted constants; or 2) the alternative derivation that extracts k SP and k cat directly from the fit: y = (k SP × x)/((1 + k SP × x)/k cat), and where y is Rate/E 0 or the rate of product formation (μM/min) divided by the starting enzyme concentration (μM), x is substrate concentration (μM), k SP is equivalent to k cat×K M ^–1, and K M is extracted from k cat/k cat×K M ^–1.
# [3] = Determination of pKa values by spectrophotometric titration; conditions: for pK a value: first catecholic deprotonation, determined spectroscopically from pH 3 to 12.5
# Experimental: A buffer system utilizing five different buffers was prepared to cover the pH range of 3.0 to 12.50. A Thermo Scientific Orion Star A211 pH meter was used to measure and determine the pH of each buffer. The pH meter was calibrated using three- and four-point calibration with pH values of 4.00, 7.01, and 10.01 and 4.00, 7.01, 10.01, and 12.00, respectively.
# The buffer systems were prepared as previously described and included: NaOAc/HOAc buffers (C = 0.1 M; I = 0.1 M) were used to cover the pH range of 3.0 to 5.50. KH2PO4/K2HPO4 buffers (C = 0.05 M; I = 0.1 M) were used to cover the pH range of 6.00 to 8.00. CHES buffers (C = 0.05 M; I = 0.1 M) were used to cover the pH range of 8.50 to 10.50. Na2HPO4/Na3PO4 buffers (C = 0.05 M; I = 0.1 M) were used to cover the pH range of 11.00 to 12.00. KCl buffers (C = 0.1 M; I = 0.1 M) were used to cover the pH range of 12.00 to 12.50.
# The absorbance spectra of the compounds were determined at each pH as previously described. Briefly, a stock solution was prepared for each compound by weighing 2 mg of the compound using a high-precision analytical balance. Each compound was then dissolved in DMSO at a concentration of 10 mM. A UV-transparent 96-well microplate (Corning clear acrylic 96-well UV plate with a UV-transparent flat bottom) was loaded with 196 μL of buffer solution and 4 μL of the catechol stock in each well to get a final concentration of 200 μM. DMSO (4 μL) was added to 196 μL of the appropriate buffer to produce a blank solution for each buffer.
# The 96-well plate was loaded into the microplate reader and incubated at 30 °C and shaken for 10 min before the reading. Absorbance readings were completed by using a Synergy HTX 15032517 microplate reader. Each well was read at wavelengths from 210 to 600 nm with 2-nm increments for each scan over a duration of 60 min.
# The data were analyzed as previously described. Raw UV-spectra scans were exported to the Excel program. They were first processed by subtracting the reading of the blank solutions from the reading of each compound at the corresponding wavelengths. […] Finally, the spectral difference between the pH 3.0 buffer and the spectra at all other pH values was plotted. Additionally, the spectral difference between the pH 4.0 buffer and the spectra at all other higher pH values was plotted. The wavelengths for the maximum positive and negative absorbance were determined by using the graphs of the spectral difference plots, both for the pH 3.0 and pH 4.0 spectral difference plots. The absolute maximum positive and total absorbance differences at these chosen wavelengths were plotted against the pH of each buffer. The data were imported into the Origin 6.0 program, and the pK a values were determined with a nonlinear regression using eq : 1 Absorbancetotal=εHA−εA−[10^(pH−pKa)]/1+10^(pH−pKa)×[St]
# εHA is the extinction coefficients of the acid form of the compound, and εA ^– is the extinction coefficient of the base form of the compound (i.e., the minima and maxima of the absorbance difference curve, respectively), and [S t] is the total compound concentration.
# [4] = percentage of the value for L-DOPA
structure (smiles),measurement,setting,value
"N#Cc1cc(O)c(O)cc1CCC(=O)O [6-CyanoDHHCA (5), 3-(2-cyano-4,5-dihydroxyphenyl) propanoic acid]",(E p)a Oxidation,[1]; pH 6.0,358 mV
same,(E p)c Reduction,[1]; pH 6.0,260 mV
same,E1/2,[1]; pH 6.0,309 mV
same,Ipa/Ipc,[1]; pH 6.0,3.92
same,ΔE p,[1]; pH 6.0,98 mV
same,(E p)a Oxidation,[1]; pH 7.4,272 mV
same,(E p)c Reduction,[1]; pH 7.4,147 mV
same,E1/2,[1]; pH 7.4,209.5 mV
same,Ipa/Ipc,[1]; pH 7.4,1.96
same,ΔE p,[1]; pH 7.4,125 mV
same,E1/2 (mV) at pH 7.4 relative to L-DOPA x 100,[1]; [4],104%
same,kcat at 22 °C and 100% O2 saturation,"[2]; S. hygroscopicus jingganensis enzyme, pH 7.5",1.1 × 10^–3 ± 1.0 × 10 ^–4 sec^–1
same,"kSP,O2 × 10^2 at 22 °C","[2]; S. hygroscopicus jingganensis enzyme, values are kSP × 10^2",4.0 × 10^–2 ± 6.0 × 10 ^–3 μM^–1 min^–1
same,kSP catechol × 10^2 at 22 °C,"[2]; S. hygroscopicus jingganensis enzyme, values are kSP × 10^2, kSP = kcat/KM",2.8 × 10^–2 ± 7.1 × 10 ^–3 μM^–1 min^–1
same,activity / turnover as substrate,"[2]; ShjDDO, aerobic reaction observed by UV–visible spectroscopy",measurable activity
same,"kSP, O2 (μM^-1 min^-1) at pH 7.5 relative to L-DOPA x 100 for ShjDDO",[2]; listed as 6-cyanoDHHCA,0.03%
same,"kSP, O2 (μM^-1 min^-1) at pH 7.5 relative to L-DOPA x 100 for ShjDDO",[2]; listed as 6-cyanoDHHCA (5),< 0.1%
same,ratio of charge states (k1/k-1) predicted by pKa value and Henderson-Hasselbach equation,[3]; at pH 7.35,1.44
same,pK a value,[3],7.51 ± 0.06
same,pK a value,[3]; listed as 6-cyanoDHHCA,7.51
same,Catecholic pKa value relative to L-DOPA x 100,[3]; [4],85%
